Assay results reported in patent US6043228A, “O^6 -substituted guanine derivatives, a process for their preparation and their use in treating tumor cells” (Cancer Research Campaign Technology Limited, priority 1993, dated 2000).
Values joined by “and” are separate entries in the source; they are usually repeats but may differ in a detail not shown here. Equal entries are not always repeated. “Also recorded” adds a separate entry of the source.

Experiments:
[1] = tested on: human melanoma xenografts; assay: Sensitization of human melanoma xenografts to temozolomide; format: in vivo, nude mice; conditions: for sensitizing human melanoma xenografts to growth inhibitory effects of temozolomide, in words: inactivator i.p. 1 hour before temozolomide 100 mg/kg i.p., five consecutive days (FIGS. 21A, 22A)
Experimental: Xenograft tumour measurements were taken every 1-2 days by workers using digital calipers. Tumour volume was calculated using the formula (h×w×l)π/6. The experimental animals were also weighed every 1-2 days. Measurements continued until tumours in the control animals reached the maximum allowable volume (i.e. 1 cm×1 cm×1 cm).
(§1) Mice were treated with the inactivator as a suspension in corn oil by intraperitoneal injection (i.p.) or by oral gavage (p.o.) 60 mins prior to temozolomide (100 mg/kg in 20% DMSO in phosphate-buffered saline) which was always given by intraperitoneal injection: this schedule was repeated on days 1 to 5 inclusive. Controls received vehicle alone, inactivator alone or temozolomide alone.
The mice in the tests shown in FIGS. 19-24 were Swiss mouse derived athymic male mice ([…]) from ZENECA Pharmaceuticals, Mereside, Alderley Park, Macclesfield, Cheshire SK10 4T6, England.

[2] = tested on: Raji cells; assay: Sensitization of Raji cells to temozolomide (XTT assay); format: cell-based, human
Experimental: Following a 2 hour incubation at 37° C., medium containing either increasing doses of BCNU, temozolomide or equivalent vehicle was added and the cells allowed to grow for 6 days. At this time XTT solution was added and the cells incubated for a further 4 hours at 37° C. The resulting red/orange formazan reaction product was quantified by measuring absorption at 450 nm on a microtitre platereader.

[3] = target: T1, ATase (Mus musculus, UniProt P26187); assay: ATase activity in tissues of nude mice after inactivator; format: in vivo; conditions: for inactivation of ATase in mouse tissues, in words: single dose (FIG. 18, Table 10)
T1 construct: Effect of B.4280 on ATase activity in several tissues of nude mice; from tissue; host or cells: liver, lung, kidney, spleen, brain, testis and bone marrow of nu/nu mice
T1 sequence (P26187 1-211): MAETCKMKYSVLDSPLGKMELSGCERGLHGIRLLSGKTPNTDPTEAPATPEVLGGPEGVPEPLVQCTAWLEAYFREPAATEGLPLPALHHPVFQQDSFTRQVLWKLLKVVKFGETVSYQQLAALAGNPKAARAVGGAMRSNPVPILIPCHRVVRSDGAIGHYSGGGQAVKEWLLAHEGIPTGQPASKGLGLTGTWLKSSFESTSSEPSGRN
Experimental: ATase substrate DNA was prepared by incubation of purified calf thymes DNA with N-[^3 H]-methyl-N-nitrosuourea (18.7 Ci/mmole, Amersham International). Cell or tissue extracts (see 4.4) were incubated with [^3 H]-methylated-DNA substrate (100 μl containing 6.7 μg of DNA and 100 fmol of O^6 -[^3 H]methylguanine) at 37° C. for 60 mins. Following acid hydrolysis of the DNA as precviously described^21the [^3 H]-methylated protein was recovered and quantitated by liquid scintillation counting. […]
The mice in the tests shown in FIGS. 17 and 18 were BALB-C derived athymic male mice (nu/nu athymic) from the in-house breeding colony at the Paterson Institute for Cancer Research as described above (Animal Services Unit-ASU Mice).
Animals were given a single dose of B.4280 (10 mg/kg i.p.) and sacrificed

[4] = target: T2, ATase in human melanoma xenografts (Homo sapiens, UniProt P16455); assay: ATase activity in human melanoma (A375) xenografts grown in nude mice after inactivator; format: in vivo; conditions: for inactivation of ATase in human melanoma xenografts, in words: single i.p. dose 30 or 60 mg/kg (FIG. 17); for ATase mean activity (fm/mg): Tumour
T2 construct: A375M cells are human melanoma cells from which the xenografts described below were established; endogenous in cells; host or cells: A375M xenograft grown in nude mice
T2 sequence (P16455 1-207): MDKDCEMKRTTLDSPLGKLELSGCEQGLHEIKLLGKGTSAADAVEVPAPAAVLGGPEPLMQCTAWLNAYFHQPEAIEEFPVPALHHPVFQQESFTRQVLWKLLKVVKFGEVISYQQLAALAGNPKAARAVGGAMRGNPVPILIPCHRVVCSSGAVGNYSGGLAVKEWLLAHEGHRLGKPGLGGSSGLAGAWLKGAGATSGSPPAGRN
Experimental: Cells (10^6) in 100 μl of PBS were injected subcutaneously into the right-hand flank of 8-10 week old nu/nu athymic mice. These cells were allowed to develop into a tumour for 3-4 weeks for passaging into experimental animals. Tumour blocks measuring 2 mm×2 mm×2 mm were implanted subcutaneously on the right hand flank. These animals were ready for use in inactivator experiments in 7-10 days.
ATase substrate DNA was prepared by incubation of purified calf thymes DNA with N-[^3 H]-methyl-N-nitrosuourea (18.7 Ci/mmole, Amersham International). Cell or tissue extracts (see 4.4) were incubated with [^3 H]-methylated-DNA substrate (100 μl containing 6.7 μg of DNA and 100 fmol of O^6 -[^3 H]methylguanine) at 37° C. for 60 mins. Following acid hydrolysis of the DNA as precviously described^21the [^3 H]-methylated protein was recovered and quantitated by liquid scintillation counting.
as §1

[5] = target: T2, ATase in human melanoma xenografts; assay: as above; format: in vivo; conditions: with temozolomide 50 mg/kg i.p., three consecutive days, 24 hours after final dose (FIG. 19)
[6] = target: T3, recombinant human ATase (Homo sapiens, UniProt P16455); assay: In vitro ATase inactivation assay (incubation with inactivators and ATase assay); format: biochemical; conditions: for ATase inactivation in vitro, result in words: recombinant human ATase, standard conditions
T3 construct: made in house
T3 sequence (P16455 1-207): T2 sequence (P16455 1-207)
Experimental: The cDNA cloning and overexpression of the human ATase has been reported previously^23. Purification of the recombinant proteins was achieved either by affinity chromatography through a DNA-cellulose column as described by Wilkinson et al.,^25, 26 or by DEAE-cellulose ion-exchange chromatography. For the latter, the ATase protein was partially purified by ammonium sulphate precipitation (30-60%) and dialysed against 10 mM Tris-HCl pH 7.5, 1 mM DTT, 2 mM EDTA, 10% glycerol, before loading on a DEAE-cellulose column. The ATase was then eluted with a 0-0.1 M NaCl gradient.
Compounds to be tested were dissolved in DMSO to a final concentration of 10 mM and diluted just before use in buffer I containing 1 mg/ml bovine serum albumin (IBSA). Recombinant ATase was diluted in IBSA and titrated in order that the reaction be conducted under ATase, and not substrate, limiting conditions. […] Following acid hydrolysis of the DNA as previously described^21 the [^3 H]-methylated protein was recovered and quantitated by liquid scintillation counting. Samples were typically assayed in duplicate and experiments repeated several times. I50 is the concentration of inactivator required to produce a 50% reduction in ATase activity.

Nc1nc(OCc2cccs2)c2nc[nH]c2n1 [B.4205, 0^6 -thenylguanine]
sensitizing human melanoma xenografts to growth inhibitory effects of temozolomide, in words [1]: effective in sensitizing
sensitising Raji cells to growth inhibitory effects of temozolomide, in words ([2]; 0.1 μM inactivator (FIG. 3)): more effective than BeG
dose response of Raji sensitization to temozolomide, in words ([2]; 0.1-5.0 μM inactivator (FIGS. 3, 4)): lack of dose response
inactivation of ATase in mouse tissues, in words [3]: able to inactivate ATase in most mouse tissues examined but there was less inactivation in brain than other tissues
inactivating ATase in human melanoma xenografts, in words ([4]; 30 mg/kg (FIG. 8)): as effetive as BeG
inactivation of ATase in human melanoma xenografts, in words [4]: inactivated
ATase inactivation in tumour xenografts, in words [5]: more effective in ATase inactivation in tumour xenografts than either agent alone and 10 mg/kg being ag ettentive as 60 mg/kg
ATase inactivation in vitro, result in words [6]: considerably better; also recorded: I50 values lower than that of BeG

Nc1nc(OCc2cc(Br)cs2)c2nc[nH]c2n1 [B.4280, O^6-(4-bromothenyl)guanine]
oral versus i.p. administration in sensitizing xenografts to temozolomide, in words ([1]; 30 mg/kg p.o. vs 20 mg/kg i.p. (FIG. 24A)): almost as effective as i.p. administration
sensitizing human melanoma xenografts to growth inhibitory effects of temozolomide, in words [1]: effective in sensitizing; also recorded: about twice as effective as B.4205
sensitization of Raji cells to temozolomide, in words ([2]; 0.5 μM inactivator, 2 hours before temozolomide (FIG. 16)): much more effective than either B.4205 or BeG
ATase mean activity (fm/mg) ([3]; Bone Marrow (pooled), 24 h after 10 mg/kg i.p.): 42 fm/mg
ATase mean activity (fm/mg) ([3]; Bone Marrow (pooled), 48 h after 10 mg/kg i.p.): 61 fm/mg
ATase mean activity (fm/mg) ([3]; Brain, 24 h after 10 mg/kg i.p.): 13.7 ± 2.05 fm/mg
ATase mean activity (fm/mg) ([3]; Brain, 48 h after 10 mg/kg i.p.): 16.3 ± 1.25 fm/mg
ATase mean activity (fm/mg) ([3]; Kidney, 24 h after 10 mg/kg i.p.): 24.3 ± 4.03 fm/mg
ATase mean activity (fm/mg) ([3]; Kidney, 48 h after 10 mg/kg i.p.): 28.7 ± 4.11 fm/mg
ATase mean activity (fm/mg) ([3]; Liver, 24 h after 10 mg/kg i.p.): 89.7 ± 10.14 fm/mg
ATase mean activity (fm/mg) ([3]; Liver, 48 h after 10 mg/kg i.p.): 100.7 ± 8.73 fm/mg
ATase mean activity (fm/mg) ([3]; Lung, 24 h after 10 mg/kg i.p.): 15.3 ± 2.05 fm/mg
ATase mean activity (fm/mg) ([3]; Lung, 48 h after 10 mg/kg i.p.): 24 ± 2.83 fm/mg
ATase mean activity (fm/mg) ([3]; Spleen, 24 h after 10 mg/kg i.p.): 41 ± 5.35 fm/mg
ATase mean activity (fm/mg) ([3]; Spleen, 48 h after 10 mg/kg i.p.): 68.3 ± 9.53 fm/mg
ATase mean activity (fm/mg) ([3]; Testis, 24 h after 10 mg/kg i.p.): 45 ± 7.48 fm/mg
ATase mean activity (fm/mg) ([3]; Testis, 48 h after 10 mg/kg i.p.): 44 ± 1.41 fm/mg
inactivation of ATase in mouse tissues, in words [3]: able to inactivate ATase in most tissues
recovery of tumour ATase activity, in words ([4]; 10 mg/kg i.p. (Table 10)): very low at 24 hours but had recovered completely by 48 hours
ATase mean activity (fm/mg) ([4]; 24 h after 10 mg/kg i.p.): 36 ± 7.79 fm/mg
ATase mean activity (fm/mg) ([4]; 48 h after 10 mg/kg i.p.): 140 ± 43.87 fm/mg
inactivation of ATase in human melanoma xenografts, in words [4]: inactivated; also recorded: the most effective in vivo inactivator at the doses examined
ATase inactivation in tumour xenografts, in words [5]: more effective in ATase inactivation in tumour xenografts than either agent alone; also recorded: more effective than B.4205 at equivalent doses
IC50 [6]: 3.4 nM
ATase inactivation in vitro, result in words [6]: more efficient in inactivating ATase in vitro than its 5-bromo analogue B.4269; also recorded: more efficient than the unsubstituted thenyl derivative B.4205
